Measurements published in ChEMBL document CHEMBL1201862, “PubChem BioAssay data set” (2004).
Active and inactive are the calls of the source.

Tests used:
Hexokinase HKDC1 = target: T1, Hexokinase HKDC1 (Homo sapiens, UniProt Q2TB90); test: SAR analysis of small molecule inhibitors of hexokinase domain containing I (HKDC1). [Related pubchem assays (depositor defined):AID493160, AID493190]; assay type: functional
T1 sequence (Q2TB90 whole entry): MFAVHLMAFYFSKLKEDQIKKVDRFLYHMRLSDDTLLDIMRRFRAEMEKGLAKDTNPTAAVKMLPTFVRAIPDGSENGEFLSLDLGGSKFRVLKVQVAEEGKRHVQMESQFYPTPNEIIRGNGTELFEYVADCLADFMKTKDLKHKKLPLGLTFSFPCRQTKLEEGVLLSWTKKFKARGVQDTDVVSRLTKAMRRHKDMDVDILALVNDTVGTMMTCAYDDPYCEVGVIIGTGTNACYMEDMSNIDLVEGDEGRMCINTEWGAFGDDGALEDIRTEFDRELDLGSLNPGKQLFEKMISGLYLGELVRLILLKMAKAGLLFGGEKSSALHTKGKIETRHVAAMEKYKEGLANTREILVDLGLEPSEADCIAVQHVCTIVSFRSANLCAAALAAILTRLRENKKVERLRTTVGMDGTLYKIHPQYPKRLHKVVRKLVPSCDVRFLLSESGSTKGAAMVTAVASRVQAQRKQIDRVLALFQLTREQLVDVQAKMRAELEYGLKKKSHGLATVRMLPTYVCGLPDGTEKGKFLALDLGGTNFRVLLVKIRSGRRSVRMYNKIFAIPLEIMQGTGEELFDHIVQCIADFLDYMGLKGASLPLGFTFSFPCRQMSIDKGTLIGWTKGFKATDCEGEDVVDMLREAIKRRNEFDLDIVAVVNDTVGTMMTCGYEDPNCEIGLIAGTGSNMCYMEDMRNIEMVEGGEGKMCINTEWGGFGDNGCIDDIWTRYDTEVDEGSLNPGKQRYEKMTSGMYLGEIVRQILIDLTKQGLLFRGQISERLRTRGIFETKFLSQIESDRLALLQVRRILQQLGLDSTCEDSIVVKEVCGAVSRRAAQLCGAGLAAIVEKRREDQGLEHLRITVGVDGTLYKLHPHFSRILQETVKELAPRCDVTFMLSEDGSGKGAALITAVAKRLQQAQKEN

Keap1/Nrf2 = Keap1/Nrf2 (Homo sapiens, UniProt Q14145); test: Keap1-Nrf2 protein-protein interaction inhibitors, dose response, biochemical, fluorescence polarization, cherry-picked samples (AID 588683)
Beta-galactosidase = Beta-galactosidase (Escherichia coli, UniProt Q8VNN2); test: beta-galactosidase enzyme inhibitors and activators, dose response, artefact control for CCR6 antagonist project, biochemical, E. coli enzyme, set 3 (AID 504712); assay type: functional
[1] = cytotoxicity toward NIH3T3 fibroblasts, dose response, counter-screen, cell-based, ATP luminescence, mouse fibroblasts (AID 2010); assay type: functional;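 also: cells exposed to compound for about 90 hours before reading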

Keap1/Nrf2, sequence (Q16236 whole entry): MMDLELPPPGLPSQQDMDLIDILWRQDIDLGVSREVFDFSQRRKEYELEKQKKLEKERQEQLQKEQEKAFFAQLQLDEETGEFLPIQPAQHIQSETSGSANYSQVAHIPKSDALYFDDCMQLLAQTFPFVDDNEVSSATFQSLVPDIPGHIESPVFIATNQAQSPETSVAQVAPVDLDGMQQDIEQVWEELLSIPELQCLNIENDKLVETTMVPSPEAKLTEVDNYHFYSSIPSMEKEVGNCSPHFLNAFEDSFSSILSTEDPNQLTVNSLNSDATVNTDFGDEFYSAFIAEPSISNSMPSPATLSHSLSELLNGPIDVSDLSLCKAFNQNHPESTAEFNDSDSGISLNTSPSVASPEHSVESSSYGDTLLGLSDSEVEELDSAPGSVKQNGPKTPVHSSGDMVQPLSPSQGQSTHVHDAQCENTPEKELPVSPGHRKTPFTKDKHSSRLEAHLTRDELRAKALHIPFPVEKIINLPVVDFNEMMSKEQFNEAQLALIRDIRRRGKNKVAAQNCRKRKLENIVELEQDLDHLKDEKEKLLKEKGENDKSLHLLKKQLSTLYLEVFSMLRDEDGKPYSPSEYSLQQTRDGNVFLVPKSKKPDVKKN
Keap1/Nrf2, sequence (Q14145 whole entry): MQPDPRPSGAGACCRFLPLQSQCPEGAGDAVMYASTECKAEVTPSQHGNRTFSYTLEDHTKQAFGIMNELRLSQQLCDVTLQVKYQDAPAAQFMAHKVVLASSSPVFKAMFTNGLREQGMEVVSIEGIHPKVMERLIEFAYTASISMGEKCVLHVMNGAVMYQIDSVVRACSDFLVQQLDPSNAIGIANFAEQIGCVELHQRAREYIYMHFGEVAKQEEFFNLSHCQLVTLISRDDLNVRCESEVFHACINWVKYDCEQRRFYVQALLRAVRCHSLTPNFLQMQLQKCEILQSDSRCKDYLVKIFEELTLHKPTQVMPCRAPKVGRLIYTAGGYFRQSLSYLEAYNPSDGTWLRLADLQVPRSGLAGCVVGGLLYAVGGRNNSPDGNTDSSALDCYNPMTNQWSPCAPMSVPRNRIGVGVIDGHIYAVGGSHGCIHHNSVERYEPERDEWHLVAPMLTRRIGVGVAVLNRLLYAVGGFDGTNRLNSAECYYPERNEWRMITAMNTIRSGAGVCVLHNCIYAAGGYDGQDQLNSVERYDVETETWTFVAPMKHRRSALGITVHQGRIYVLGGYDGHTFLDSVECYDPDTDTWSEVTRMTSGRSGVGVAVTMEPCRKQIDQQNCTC
Beta-galactosidase, sequence (Q8VNN2 whole entry): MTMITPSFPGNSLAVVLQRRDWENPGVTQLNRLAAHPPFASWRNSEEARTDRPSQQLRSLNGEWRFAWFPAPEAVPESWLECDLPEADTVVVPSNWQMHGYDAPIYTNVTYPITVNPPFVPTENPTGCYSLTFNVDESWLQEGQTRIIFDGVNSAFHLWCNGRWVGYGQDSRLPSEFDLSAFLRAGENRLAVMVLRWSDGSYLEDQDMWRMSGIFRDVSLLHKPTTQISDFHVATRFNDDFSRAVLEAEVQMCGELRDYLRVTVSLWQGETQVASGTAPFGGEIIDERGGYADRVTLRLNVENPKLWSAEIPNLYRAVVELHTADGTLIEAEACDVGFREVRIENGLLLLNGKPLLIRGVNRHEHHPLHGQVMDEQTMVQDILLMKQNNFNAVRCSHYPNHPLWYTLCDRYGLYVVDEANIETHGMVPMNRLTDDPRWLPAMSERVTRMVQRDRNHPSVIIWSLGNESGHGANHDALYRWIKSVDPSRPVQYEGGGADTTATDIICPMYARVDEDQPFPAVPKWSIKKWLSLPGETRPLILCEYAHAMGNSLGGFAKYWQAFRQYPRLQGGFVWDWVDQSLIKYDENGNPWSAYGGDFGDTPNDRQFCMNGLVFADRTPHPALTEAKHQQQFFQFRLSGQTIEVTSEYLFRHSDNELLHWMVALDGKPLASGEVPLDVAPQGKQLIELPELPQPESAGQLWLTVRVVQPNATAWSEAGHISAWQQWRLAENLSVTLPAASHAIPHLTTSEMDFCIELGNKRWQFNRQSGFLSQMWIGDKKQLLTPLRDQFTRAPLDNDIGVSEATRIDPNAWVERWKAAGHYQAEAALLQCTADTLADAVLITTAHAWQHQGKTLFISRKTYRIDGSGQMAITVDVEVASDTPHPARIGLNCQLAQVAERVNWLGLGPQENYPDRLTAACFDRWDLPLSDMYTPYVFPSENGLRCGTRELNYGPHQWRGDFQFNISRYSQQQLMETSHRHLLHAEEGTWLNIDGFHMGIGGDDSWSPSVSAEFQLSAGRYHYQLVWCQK

With `O=c1c2ccccc2nc(/C=C/c2cccnc2)n1Cc1ccccc1` the IC50 (Hexokinase HKDC1) was > 80 µM (inactive).

For `COC(=O)c1ccccc1NC1=C/C(=N\S(=O)(=O)c2ccc(C(=O)O)cc2)c2ccccc2C1=O`, the AC50 (Keap1/Nrf2) was > 52 µM (inactive) and the IC50 (Beta-galactosidase) was > 66.6 µM (inactive).

With `NC(=O)C1CCN(C2=C(Cl)C(=O)c3ccccc3C2=O)CC1` the EC50 [1] was 3.29 µM (active).
